From article PMC3621832, “Non-Complexed Four Cascade Enzyme Mixture: Simple Purification and Synergetic Co-stabilization” (PLoS ONE, 2013)

What was measured:
Type in all cases: biochemical
[1] = biological target: T1, fructose bisphosphate aldolase (ALD) (Thermotoga maritima, UniProt Q9WYB0); assay: coupled cascade with TIM, FBP and PGI; G6P by enzymatic glucose reagent
T1 construct: gene TM_0273; heat and ammonium sulfate purification
T1 sequence (Q9WYB0 1-315): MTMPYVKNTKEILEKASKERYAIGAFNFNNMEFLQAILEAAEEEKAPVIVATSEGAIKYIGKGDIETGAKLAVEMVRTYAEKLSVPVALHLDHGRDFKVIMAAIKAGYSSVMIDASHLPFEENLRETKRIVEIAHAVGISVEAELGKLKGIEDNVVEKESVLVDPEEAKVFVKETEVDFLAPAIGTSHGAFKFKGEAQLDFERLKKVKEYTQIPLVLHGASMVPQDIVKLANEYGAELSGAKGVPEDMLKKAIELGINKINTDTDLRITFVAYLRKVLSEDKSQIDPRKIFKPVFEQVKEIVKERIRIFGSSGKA

[2] = biological target: T2, fructose bisphosphatase (FBP) (Thermotoga maritima, UniProt O33832); assay: FBP activity assay as described elsewhere; also in four-enzyme cascade
T2 construct: gene suhB; recombinant, E. coli, plasmid pCIF (CBM-intein-FBP), tag-free after intein self-cleavage
T2 sequence (O33832 1-256): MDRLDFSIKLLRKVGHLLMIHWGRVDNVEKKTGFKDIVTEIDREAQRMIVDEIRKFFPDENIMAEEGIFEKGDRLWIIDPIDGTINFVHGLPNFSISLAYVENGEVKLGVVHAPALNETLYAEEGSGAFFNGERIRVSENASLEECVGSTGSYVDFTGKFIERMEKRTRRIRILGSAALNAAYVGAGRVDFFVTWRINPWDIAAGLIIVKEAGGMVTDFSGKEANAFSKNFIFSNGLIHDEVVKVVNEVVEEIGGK

[3] = biological target: T3, phosphoglucose isomerase (PGI) (Acetivibrio thermocellus, UniProt A3DBX9); assay: G6P formation by enzymatic glucose kit; conditions: 100 mM HEPES pH 7.5, 10 mM MgCl2, 0.5 mM MnCl2, 60°C
T3 construct: recombinant, E. coli, plasmid pCIP (CBM-intein-PGI), tag-free after intein self-cleavage
T3 sequence (A3DBX9 1-448): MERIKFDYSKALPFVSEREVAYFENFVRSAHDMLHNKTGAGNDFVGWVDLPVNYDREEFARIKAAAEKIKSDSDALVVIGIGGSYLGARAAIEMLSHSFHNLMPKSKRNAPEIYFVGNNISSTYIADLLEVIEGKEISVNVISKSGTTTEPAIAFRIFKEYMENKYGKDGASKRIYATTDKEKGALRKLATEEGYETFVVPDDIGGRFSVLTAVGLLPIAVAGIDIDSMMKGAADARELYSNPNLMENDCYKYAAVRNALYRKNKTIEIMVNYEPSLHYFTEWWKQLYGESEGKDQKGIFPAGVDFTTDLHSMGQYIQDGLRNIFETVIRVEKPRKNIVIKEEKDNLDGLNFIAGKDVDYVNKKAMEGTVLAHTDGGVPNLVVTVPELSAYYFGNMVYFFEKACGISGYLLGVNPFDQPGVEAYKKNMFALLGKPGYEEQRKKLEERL

## O=C[C@H](O)COP(=O)(O)O [glyceraldehyde-3-phosphate]
[1]; co-substrate DHAP
  coupled cascade with TIM, FBP and PGI; G6P by enzymatic glucose reagent: G3P and DHAP were substrates and F16P was the product

## O=P(O)(O)OC[C@H]1OC(O)(COP(=O)(O)O)[C@@H](O)[C@@H]1O (stereo partly shown) [fructose 1,6-bisphosphate]
[2]
  FBP activity assay as described elsewhere; also in four-enzyme cascade: FBP catalyses the irreversible conversion of F16P to fructose 6-phosphate (F6P)

## O=P(O)(O)OC[C@H]1OC(O)(CO)[C@@H](O)[C@@H]1O (stereo partly shown) [fructose 6-phosphate]
[3]
  G6P formation by enzymatic glucose kit: PGI reversibly converts fructose-6-phosphate (F6P) and glucose-6-phosphate (G6P)

## O=C(CO)COP(=O)(O)O [dihydroxyacetone phosphate]
[1]; co-substrate G3P
  coupled cascade with TIM, FBP and PGI; G6P by enzymatic glucose reagent: G3P and DHAP were substrates and F16P was the product
